Test results from patent publication US20190134128A1, “METHOD FOR PRODUCING CELASTROL AND PENTACYCLIC TRITERPENE DERIVATIVES” (PIERRE FABRE DERMO-COSMETIQUE, priority 2016, published 2019).
Converted amounts (≈) assume the structure as drawn.

Columns and labels:
[1] = test system: Propionibacterium acnes (CIP 53117T); assay: Antimicrobial activity (MIC/MBC, micro-method in liquid medium) against Propionibacterium acnes; assay type: cell-based; settings: 24 h
Description: Activity is evaluated on Propionibacterium acnes (CIP 53117T), with an inoculation suspension at 10^8 CFU/mL. The maintenance medium is Columbia agar+5% sheep blood, with incubation for 24 hours at 36±1° C. under anaerobic conditions. The test medium is composed of Mueller Hinton broth+10% foetal calf serum (FCS) and Columbia agar+5% sheep blood, with incubation for 24 h at 36±1° C. under anaerobic conditions. The determination of minimum inhibitory concentrations (MICs) is performed by micro-method in liquid medium. 100 μL of liquid culture medium is deposited in each well of a sterile 96-well microplate. 100 μL of the product to be tested is deposited in the first well of a row. One-half dilutions are then made from wells 1 to 10. Propionibacterium acnes test suspensions are prepared extemporaneously in tryptone salt. 100 μL is deposited in each well of a second microplate, except column 11. All of the first microplate is inoculated, using a Denley multipoint inoculator, from the second microplate. After incubation, MICs are defined as the highest dilution with no visible growth. Columns 11 and 12 serve as negative and positive growth control, respectively. Two references were tested in parallel. The determination of minimum bactericidal concentrations (MBCs) is performed by subculturing MIC microplates on agar medium using the Denley multipoint inoculator. After incubation, MBC is defined as the highest dilution with no visible growth. All tests are performed in duplicate.

S. aureus CIP 4.83 = assay: Antimicrobial activity (MIC/MBC) against Staphylococcus aureus; assay type: cell-based
NFκB = assay: Inhibitory activity against NFκB in HaCaT keratinocytes stimulated with TNF-alpha; assay type: cell-based, human; settings: 2 μM, TNF-alpha 0.3 ng/mL
Excerpt: The transcription factor NFκB controls the expression of a large number of genes involved in regulation of the inflammatory response. […] Certain pro-inflammatory stimuli such as TNF-alpha and IL-1-beta lead to the activation of NFκB, i.e. its nuclear translocation. Once in the nucleus, NFκB will induce the transcription of pro-inflammatory genes encoding cytokines, chemokines, adhesion molecules, growth factors and inducible enzymes.
The anti-inflammatory activities of the extracts obtained from the suspensions contained in Erlenmeyer flasks E1, E2, E3 and E6 of example 8 were evaluated in vitro on human HaCaT keratinocytes according to the method described by Albanesi et al. The extracts, weighed in dry weight, were taken up in a buffer and introduced into a HaCaT cell culture solution in equivalent final concentrations (ng/mL) for each extract and incubated for 1 hour. NFκB expression is then induced by stimulation with TNF-alpha (0.3 ng/mL).

[2] = Propionibacterium acnes, anaerobic
[3] = S. aureus CIP 4.83, 36° C., 24 h
[4] = Staphylococcus aureus, CIP4, 24 h

C[S+](C)[O-] [DMSO]
MBC [1, 2]: 5 µg/mL (≈ 64 µM)
MIC [1, 2]: 5 µg/mL (≈ 64 µM)
MBC (S. aureus CIP 4.83; [3]): >5 µg/mL
MIC (S. aureus CIP 4.83; [3]): >5 µg/mL

C[C@@H]1C[C@H]2[C@@H]3CCC4=CC(=O)C=C[C@]4(C)[C@@]3(F)[C@@H](O)C[C@]2(C)[C@@]1(O)C(=O)CO [Dexamethasone]
% inhibition of NFκB expression with respect to induction of TNF-alpha (NFκB): more than 40%
% inhibition of NFκB expression with respect to induction of TNF-alpha (NFκB; listed as Dex): 42.5%

CC1=C(O)C(=O)C=C2C1=CC=C1[C@@]2(C)CC[C@@]2(C)[C@@H]3C[C@@H](C)C(=O)[C@@H](O)[C@]3(C)CC[C@]12C [Tingenin B, tingenin B]
MBC ([1]; Cutibacterium acnes): 1.17 µg/mL (≈ 2.68 µM)
MIC ([1]; Cutibacterium acnes): 1.17 µg/mL (≈ 2.68 µM)
MBC (S. aureus CIP 4.83; [4]): 1.17 µg/mL (≈ 2.68 µM)
MIC (S. aureus CIP 4.83; [4]): 0.59 µg/mL (≈ 1.35 µM)

CC1=C(O)C(=O)C=C2C1=CC=C1[C@@]2(C)CC[C@@]2(C)[C@@H]3C[C@](C)(C(=O)O)CC[C@]3(C)CC[C@]12C [Celastrol, celastrol]
MBC ([1]; Cutibacterium acnes): 1.17 µg/mL (≈ 2.6 µM)
MIC ([1]; Cutibacterium acnes): 0.59 µg/mL (≈ 1.31 µM)
MBC (S. aureus CIP 4.83; [4]): 0.59 µg/mL (≈ 1.31 µM)
MIC (S. aureus CIP 4.83; [4]): 0.29 µg/mL (≈ 0.644 µM)

CC1=C(O)C(=O)C=C2C1=CC=C1[C@@]2(C)CC[C@@]2(C)C3C[C@@H](C)C(=O)C[C@]3(C)CC[C@]12C (stereo partly drawn) [Tingenin A, tingenin A]
MBC ([1]; Cutibacterium acnes): 2.34 µg/mL (≈ 5.56 µM)
MIC ([1]; Cutibacterium acnes): 2.34 µg/mL (≈ 5.56 µM)
MBC (S. aureus CIP 4.83; [4]): 2.34 µg/mL (≈ 5.56 µM)
MIC (S. aureus CIP 4.83; [4]): 1.17 to 2.34 µg/mL (≈ 2.78 to 5.56 µM)
